Reference: patent publication US20230263797A1, “Mammalian Hybrid Pre-Autophagosomal Structure HyPAS and Compositions and Methods for the Treatment of Coronavirus Infections and Related Disease States” (UNM Rainforest Innovations, priority 2021, published 2023)

Columns and labels:
[1] = system: LC3-ATG16L1 overlap in HeLa cells; assay: HCM colocalization between FLAG-ATG16L1 and LC3 (LAP-like noncanonical autophagy); format: cell-based, human; settings: WT or STX17KO HeLa cells; monensin 100 μM for 1 h
Method: HCM was performed as described previously (Kumar et al., 2019). […] Cells were permeabilized with 0.1% saponin and blocked in 3% BSA for 30 mins followed by incubation with primary antibody for 6 h and secondary antibody for 1 h. High content microscopy with automated image acquisition and quantification was carried out using a Cellomics HCS scanner and iDEV software (Thermo) in 96-well plates (Kumar et al., 2019). For HCM experiments >500 primary objects were counted per well, minimum 6 wells were counted per experiments and data presented in figures are derived from at least 3 independent experiments.

[2] = system: HyPAS formation; assay: High content microscopy (HCM) quantification of HyPAS formation (overlap between FIP200 and FLAG-ATG16L1); format: cell-based, human
Method: HCM was performed as described previously (Kumar et al., 2019). Cells were stimulated for autophagy by incubating in EBSS for 2 h followed by fixation with 4% paraformaldehyde for 5 mins. Cells were permeabilized with 0.1% saponin and blocked in 3% BSA for 30 mins followed by incubation with primary antibody for 6 h and secondary antibody for 1 h. High content microscopy with automated image acquisition and quantification was carried out using a Cellomics HCS scanner and iDEV software (Thermo) in 96-well plates (Kumar et al., 2019). For HCM experiments >500 primary objects were counted per well, minimum 6 wells were counted per experiments and data presented in figures are derived from at least 3 independent experiments.
Immunofluorescence confocal microscopy was carried out as described previously (Kumar et al., 2019). Briefly, cells were plated onto coverslips in 6 well or 12-well plates. Transfected cells were incubated in full media or EBSS (Earle's Balanced Salt Solution) for 2 h and fixed in 4% paraformaldehyde for 10 min followed by permeabilization with 0.1% saponin in 3% BSA. Cells were blocked 3% BSA and then incubated with primary antibodies for 4 h. Cells were washed three times with PBS and then incubated with appropriate secondary antibodies (Invitrogen) for 1 h at room temperature. Coverslips were then mounted using ProLong Gold Antifade Mountant (Invitrogen) and analyzed by confocal microscopy using the Zeiss LSM510 Laser Scanning Microscope.

[3] = system: STX17 and E-SYT2 interactions; assay: Co-IP analysis of interactions of STX17 with E-SYT2 in 293T cells; format: cell-based; settings: CQ treatment
Method: (§1) Immunoblotting and co-immunoprecipitation (co-IP) were performed as described previously (Kumar et al., 2018). For co-IP, cells were transfected with 10 μg of plasmids, wherever stated, and lysed in NP-40 buffer containing protease inhibitor cocktail (Roche, cat #11697498001) and PMSF (Sigma, cat #93482). Lysates were mixed with 5 μg antibody and incubated at 4° C. for overnight followed by incubation with Dynabeads protein G (Life Technologies) for 4 h, at 4° C. Beads were washed three times with PBS and then boiled with SDS-PAGE buffer for analysis of interacting protein by immunoblotting.

[4] = system: HyPAS formation in vitro (GFP-FIP200 and mCherry-ATG16L1 membranes); assay: In vitro fusion ivitHC assay between GFP-FIP200 and mCherry-ATG16L1 membranes; format: biochemical; settings: vesicles from cells induced for autophagy; BAPTA used at 20 μM
Method: 293A WT or SIGMAR1^KO cells were plated in 96 well plates and transfected with indicated Keima plasmids. Cells were incubated in full media or induced for autophagy by incubating with EBSS for 8 h. Cells were then incubated in full media and incubated with Hoechst 33342 for ten minutes in full media and then acquired for Keima fluorescence at 440 nm and 560 nm using the Cell Insight CX7 High-Content Screening (HCS) Platform (Thermo)(Kumar et al., 2019). In Vitro Fusion ivitHC Assay In vitro fusion assay was developed for HCM platform by modifying a previously described assay (Matsui et al., 2018a; Moreau et al., 2011). […]
One hypothesis that emerged from the above studies is that FIP200 and ATG16L1 represent two precursor membranes with STX17 facilitating heterotypic fusion between them early in autophagy. […] This method mixes vesicles from different cells expressing green (GFP-FIP200) and red (mCherry-ATG16L1) markers and after addition of an ATP and ATP-regenerating system vesicle fusion is monitored by fluorescence microscopy. We adapted this to permit HCM quantification allowing highly powered analyses and termed it IvitHC (in vitro fusion high content assay) (FIG. 2A). […]

[5] = system: STX17 and SERCA2 interactions; assay: Co-IP analysis of interactions of STX17 with SERCA2 in 293T cells; format: cell-based; settings: CQ treatment
Method: as §1

CC[C@@]1([C@@H]2O[C@@H]([C@H]3O[C@@](O)(CO)[C@H](C)C[C@@H]3C)C[C@@H]2C)CC[C@H]([C@]2(C)CC[C@]3(C[C@H](O)[C@@H](C)[C@@H]([C@@H](C)[C@@H](OC)[C@H](C)C(=O)O)O3)O2)O1 [monensin]
LC3-ATG16L1 overlap, as a measure of LAP-like noncanonical autophagy [1]: increase

CC(=O)OCOC(=O)CN(CC(=O)OCOC(C)=O)c1ccccc1OCCOc1ccccc1N(CC(=O)OCOC(C)=O)CC(=O)OCOC(C)=O [BAPTA-AM]
HyPAS formation ([2]; STX17KO HeLa cells, starvation-induced autophagy, BAPTA-AM treatment): did not further affect
HyPAS formation ([2]; WT HeLa cells, starvation-induced autophagy (EBSS, 2 h), BAPTA-AM treatment): reduced

C/C=C(/C)C(=O)O[C@H]1C(C)=C2[C@H]([C@@H]1OC(=O)CCCCCCC)[C@@](C)(OC(C)=O)C[C@H](OC(=O)CCC)[C@@]1(O)[C@H]2OC(=O)[C@@]1(C)O [TG, thapsigargin]
Effect of TG on HyPAS formation ([2]; STX17KO HeLa cells): abrogated
HyPAS formation ([2]; WT HeLa cells, basal conditions, thapsigargin treatment): increased

COc1ccc(CCN2CCN(CCCc3ccccc3)CC2)cc1OC [cutamesine]
HyPAS formation ([2]; cells grown in full medium, 100 nM for 2 h): induced

CCN(CC)CCCC(C)Nc1ccnc2cc(Cl)ccc12 (stereo not shown) [CQ, chloroquine]
STX17 and E-SYT2 interactions (co-IP) [3]: inhibited
HyPAS formation in vitro (IvitHC) [4]: inhibited
STX17 and SERCA2 interactions (co-IP) [5]: did not inhibit

CN(C)CCN(C)CCc1ccc(Cl)c(Cl)c1 [BD1047, BD-1047]
HyPAS formation induced by starvation ([2]; HeLa cells induced for autophagy (EBSS, 2 h), 10 μM for 1 h): inhibited
